Results as given in paper PMC5238433 (Scientific Reports, 2017).
Entries after “also recorded” stand apart in the source; their conditions may differ. No end group written: not given here.

How the values were obtained:
[1] = system: APJ homodimers (APJ-Rluc / APJ-EGFP); assay: BRET, effect of agonist/antagonist treatment on APJ homodimerization; type: cell-based, human; settings: CHO cells co-expressing APJ-Rluc and APJ-EGFP (1:1); concentration not given; four independent experiments in triplicate
Method: We further assessed APJ interactions by co-immunoprecipitation (Co-IP), BRET[1], and Förster resonance energy transfer (FRET). […] BRET studies were performed to confirm APJ homodimerization.
Figure 2 Assessment of apelin receptor (APJ) dimerization using co-immunoprecipitation (Co-IP) and bioluminescence resonance energy transfer (BRET) assays. (A) Assessment of APJ homodimerization with Co-IP. Chinese hamster ovary (CHO) cells were either not transfected (mock) or transfected with HA-APJ, Myc-APJ, or both (co-transfection). HA-APJ and Myc-APJ were also mixed (mix). Immunoprecipitated samples were resolved by SDS-PAGE and immunoblotted with an anti-Myc antibody (upper panel). […] (B) Assessment of APJ homodimerization with BRET[1]. (C) BRET saturation curves. (D) Assessment of effects of agonist-treatment on dimerization by BRET[1]. For BRET, four independent experiments were performed with triplicate samples and the results were expressed as the mean ± SEM of four experiments ([…] versus control group; NS, not significant versus unstimulated cells).
To monitor constitutive APJ interactions, CHO cells were transfected with APJ-Rluc and APJ-EGFP plasmids at a ratio of 1:1, 1:2, 1:3, 1:4, 1:5, and 1:6 to express a constant amount of donor-labeled protein with increasing amounts of acceptor-labeled protein. At 24 h post-transfection, cells were trypsinized and plated on a 96 well microplate for 24 h in HEPES-buffered phenol red-free medium (Invitrogen, Life Technologies). Coelenterazine h (5 μM; Promega) was added for BRET measurements using a Tristar LB941 plate reader (Berthold) with an Rluc filter (400–475 nm) and a EGFP filter (500–550 nm). To monitor the induced interactions of APJ, BRET signals were measured as described above, with slight modifications. […] To measure the effects of interference peptides on APJ dimers, CHO cells were co-transfected with APJ-Rluc and APJ-EGFP (1:3) and incubated with interference peptides corresponding to TMD1, TMD2, TMD3, TMD4, TMD5, TMD6, and TMD7 at 37 °C (4 μM), and BRET[1] detected as described above.

[2] = system: APJ oligomers (APJ-Rluc, APJ-VN173, APJ-VC155); assay: BiFC-BRET, effect of agonist/antagonist treatment on APJ oligomerization; type: cell-based, human; settings: CHO cells co-expressing APJ-Rluc, concentration not given, four independent experiments in triplicate
Method: Additionally, BiFC-BRET assays were performed to detect APJ oligomerization in living cells. Two non-fluorescent fragments (pCE-BiFC-VN173 and pCE-BiFC-VC155) of Venus fluorescent protein were separately fused to APJ (APJ-VN173 and APJ-VC155) (Fig. 4A). CHO cells were then co-transfected with APJ-Rluc, APJ-VN173, and APJ-VC155 and observed with TIRFM.
Figure 4 Assessment of apelin receptor (APJ) oligomerization with bioluminescence resonance energy transfer - bimolecular fluorescence complementation (BiFC-BRET). (A) Principle of BiFC-BRET. The assay examines the formation of functional Venus by the complementation of protein fragments fused to APJ. Association of APJ enables formation of a bimolecular fluorescent complex. If all three tagged APJ proteins interact, BRET can occur. (B) TIRFM detection of APJ dimers (yellow particles) after BiFC. (C) Assessment of APJ oligomerization with BiFC-BRET. (D) Assessment of agonist-induced oligomerization.

[3] = system: CHO-K1 cells; set-up: method as in not given ("Recent studies"); settings: serum-deprived CHO-K1 cells, 5 pM to 5 μM, xCELLigence; ref not given ("Recent studies"); cited from earlier work
[4] = system: human α-adrenergic 2 A receptors; settings: CHO-K1 cells expressing human α-adrenergic 2 A receptors (Gαi coupled), 0.15 to 333 nM, xCELLigence; ref not given ("Recent studies"); cited from earlier work
Source text: Recent studies used the xCELLigence system to monitor activation of endogenous GPCRs. […] Here, we also ...

[5] = system: APJ homodimer; assay: MALDI-TOF MS of immunoprecipitated APJ complex after treatment with HIV TAT-TMD interference peptides; type: binding, human; settings: peptide 4 μM, 60 min, 37 °C
Source text: TMDs are important for the formation of head-to-head interfaces in class A GPCR dimers. To identify dimerization interfaces in the seven TMDs of APJ, the effects of cell-penetrating interference peptides (containing the sequence of the hydrophobic transmembrane helices) on APJ homodimerization were examined by MS.
Figure 5 The effects of interference peptides on apelin receptor (APJ) homodimerization as measured by matrix assisted laser desorption […] time-of-flight (MALDI-TOF) mass spectrometry.
The identity of the TMD peptide sequences was analyzed with liquid chromatography (LC)-MS.
MS was performed to identity APJ dimer interfaces in samples treated with TMD peptides. Cells were transfected with APJ and, 48 h later, treated with or without the indicated HIV TAT-TMD fused peptides (4 μM) for 60 min at 37 °C. Extracted proteins were immunoprecipitated using an anti-APJ antibody. Protein A/G PLUS-agarose beads were incubated with proteins for 2 h and washed four times with lysis buffer. The APJ complex was eluted from beads as described previously. Then, the endogenous APJ complex was analyzed with an AXIMA matrix-assisted laser desorption/ionization time-of-flight (MALDI-TOF) system (Shimazdu) in linear positive mode. The mass range was 4–10 kDa and the matrix was Sinapic Acid (SA), 10 mg/ml (50% acetonitrile (ACN), 50% H2O, 0.1% […] (TFA)). The results were calibrated with a Shimadzu MALDI calibration kit (Laser BioLabs).

[6] = system: APJ dimer (APJ-Rluc / APJ-EGFP); assay: BRET, effect of interference peptides on APJ homodimers; type: cell-based, human
Source text: Figure 7 The effect of interference peptides on apelin receptor (APJ) dimers. […] BRET[1] was detected as described above.

[7] = system: human umbilical vein endothelial cells (HUVECs); assay: xCELLigence RTCA, apelin-13-induced cellular response (cell index) with or without interference peptide; type: cell-based; settings: TMD1 4 μM with apelin-13 10 μM, 0.1 μM or 1 nM; average of quadruplicates
Method: All curves were plotted as the average of quadruplicate treatments, with error bars shown as SEM.
A background step (step 1) was performed before other experimental steps. The background step was performed with each well of the E-Plate 16 containing only culture media (100 μl/well) for 30 min at 37 °C, prior to the addition of 10000 HUVECs per well (100 μl/well). […] The schedule settings were as follows (RTCA Software 2.0): […]

[8] = system: angiotensin-converting enzyme 2 (ACE2); settings: cited from earlier work
Source text: The apelin receptor (APJ) is a member of the family A of G-protein-coupled receptors (GPCRs) and is involved in range of physiological and pathological functions including fluid homeostasis, anxiety, and depression, as well as cardiovascular and metabolic disorders. APJ was first identified as an orphan GPCR with closest identity to the angiotensin II (Ang II) receptor. In 1998, the peptide apelin was isolated from bovine stomach extracts as the endogenous ligand of APJ.

## apelin-17
[1]
  BRET signal versus unstimulated cells (APJ homodimer formation): not significantly different to those of unstimulated cells
[2]
  BRET ratio versus unstimulated cells (APJ oligomerization, BiFC-BRET): the same as that of unstimulated cells

## calcitonin: stimulating serum-deprived CHO-K1 cells with calcitonin (CGNLSTCMLGTYTQDFNKFHTFPQTAIGVGAP; ends and bridges not checked; cysteine pairing not given here; UniProt P01258 85-116, looked up)
[3]
  cell index response: a transient agonist-induced increase in CI lasting up to a few hours

## Brc1c(NC2=NCCN2)ccc2nccnc12 [UK14,304]
[4]
  cell index response: induces a dose-dependent increase in CI

## PAIYMLVFLLGTTGNGLVLWTVFYGRKKRRQRRR [TMD1, HIV TAT-fused interference peptide derived from human APJ transmembrane domain 1]
[5]; cells transfected with APJ, anti-APJ immunoprecipitation, MALDI-TOF linear positive mode, mass range 4–10 kDa, sinapic acid
  species detected by MALDI-TOF MS / effect of peptide on APJ homodimerization: TMD1 dimers, TMD1 tetramers, APJ, [APJ + TMD1], APJ dimers, and [APJ + TMD1] dimers were detected
[5]; MALDI-TOF
  binding to APJ (peptides encoding TMDs, MS): can bind to APJ
[6]; CHO cells, APJ-Rluc:APJ-EGFP 1:3, peptide 4 μM, 37 °C, four independent experiments in triplicate
  effect on APJ dimer BRET signals: significantly reduced APJ dimer BRET signals
[6]; CHO cells, APJ-Rluc:APJ-EGFP 1:3, peptide 4 μM, 37 °C, four independent experiments in triplicate, P < 0.01, one range for TMD1, 2, 3 and 4
  reduction of APJ dimer BRET signals: 55–75%
[6]; interference peptides 4 μM, in vitro, by BRET and MS
  disruption of APJ (homo)dimerization (statement in words): disrupted APJ dimerization; also recorded: can effectively disrupt the formation of APJ homodimers; also recorded: disrupted APJ homodimerization in vitro
[7]
  HUVEC cell index (CI), interference peptide with apelin-13: led to a decreasing trend in the CI compared to that before treatment

## apelin
[8]
  hydrolysis by ACE2: high catalytic efficiency
